Results: US6060481A, “Method for improving insulin sensitivity using an adenosine receptor antagonist” (priority 1999, dated 2000)

What was measured:
[1] = molecular target: T1, human A1 adenosine receptor (Homo sapiens, UniProt P30542); assay: Binding constants against cloned and expressed human adenosine receptor subtypes (A1); details: read-out: Binding constant (KD) A1
T1 construct: expressed in transfected cells
T1 sequence (P30542 1-326): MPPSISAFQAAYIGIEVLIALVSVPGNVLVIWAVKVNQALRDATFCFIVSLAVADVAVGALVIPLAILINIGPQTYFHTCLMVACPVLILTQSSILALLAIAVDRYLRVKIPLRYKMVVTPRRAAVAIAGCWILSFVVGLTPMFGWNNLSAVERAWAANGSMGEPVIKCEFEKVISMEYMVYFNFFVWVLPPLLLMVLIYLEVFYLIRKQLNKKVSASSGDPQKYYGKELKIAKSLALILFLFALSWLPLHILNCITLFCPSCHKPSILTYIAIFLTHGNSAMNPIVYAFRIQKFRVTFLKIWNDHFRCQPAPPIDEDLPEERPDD

[2] = molecular target: T2, human A2B adenosine receptor (Homo sapiens, UniProt P29275); assay: Binding constants against cloned and expressed human adenosine receptor subtypes (A2B); details: read-out: Binding constant (KD) A2B
T2 construct: expressed in transfected cells
T2 sequence (P29275 1-332): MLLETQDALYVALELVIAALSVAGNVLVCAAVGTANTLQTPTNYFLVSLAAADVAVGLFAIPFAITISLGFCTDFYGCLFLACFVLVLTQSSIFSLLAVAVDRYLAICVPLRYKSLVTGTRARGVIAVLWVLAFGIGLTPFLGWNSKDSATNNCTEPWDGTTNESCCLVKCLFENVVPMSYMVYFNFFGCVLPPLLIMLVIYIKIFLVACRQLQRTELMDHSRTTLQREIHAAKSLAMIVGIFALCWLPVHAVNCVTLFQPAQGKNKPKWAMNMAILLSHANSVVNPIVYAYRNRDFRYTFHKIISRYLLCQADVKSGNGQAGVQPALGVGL
Source text: Any A2B adenosine receptor antagonist can be used according to the present methods. Methods for determining whether a compound is an A2B adenosine receptor agonist or antagonist involve quantitating its binding affinity to membranes which are known to contain the A2B subtype. The methods for determining whether compounds are specific ligands of different adenosine receptor subtypes will be known by practitioners of the art. […] References cited therein provide more complete descriptions of the procedures used.
In these previous methods, a radioactive compound (DPCPX) known to be highly specific for A1 adenosine receptors and whose KD is published was incubated with isolated fat cell membranes. A1 adenosine receptors are abundant in fat cells and DPCPX's binding to fat cell membranes occurs due to those receptors. […] Human cells which express large amounts of human A2B adenosine receptors are not readily available. Therefore, in order to determine the KD of BWA1433 for the A2B adenosine receptor the cDNA of human A2B adenosine receptor was used to overexpress the A2B adenosine receptor in a mammalian cell line.

[3] = molecular target: T3, human A3 adenosine receptor (Homo sapiens, UniProt P0DMS8); assay: Binding constants against cloned and expressed human adenosine receptor subtypes (A3); details: read-out: Binding constant (KD) A3
T3 construct: expressed in transfected cells
T3 sequence (P0DMS8 1-318): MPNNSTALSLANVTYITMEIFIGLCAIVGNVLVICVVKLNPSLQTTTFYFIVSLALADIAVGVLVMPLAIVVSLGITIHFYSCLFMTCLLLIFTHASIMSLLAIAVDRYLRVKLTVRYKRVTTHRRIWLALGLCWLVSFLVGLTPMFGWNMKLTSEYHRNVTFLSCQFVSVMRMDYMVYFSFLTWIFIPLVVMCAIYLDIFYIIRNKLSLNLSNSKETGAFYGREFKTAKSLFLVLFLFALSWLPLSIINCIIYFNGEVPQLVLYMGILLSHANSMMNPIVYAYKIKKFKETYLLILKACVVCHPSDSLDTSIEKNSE

[4] = test system: whole body glucose uptake; assay: Euglycemic hyperinsulinemic clamp, whole body glucose disposal and IMGU; format: in vivo, Zucker rats
Method: In this example, 6-8 week old lean and obese female animals were used. Each group received either vehicle or vehicle plus 1,3-dipropyl-8-(p-acrylic)phenylxanthine (BWA1433) (12 mg/kg every 12 h) for one week prior to the start of the experimental protocol, as described by Xu, et al., Am. J. Physiol., 274 (Endocrinol. Metab. 37): E271-E279 (1988). The vehicle in this case was 10 mg/ml methyl cellulose in H2 O. The final dose of BWA1433 or vehicle was administered approximately 1 h prior to the start of the experimental protocol.
After samples were obtained for basal metabolic determinations, a euglycemic hyperinsulinemic clamp was performed. Regular human insulin (Eli Lilly, Indianapolis, Ind.) was infused intravenously at a rate of 100 mU·min^-1 ·kg^-1 for 3 h. This infusion rate has been previously determined to result in steady-state plasma insulin concentrations of approximately 5,000 uU/ml, as reported in Lang, et al., Endocrinology, 130:43-52 (1996); Lang, Am. J. Physiol., 263 (Endocrinol. Metab. 26): E703-E711 (1992); and Lang, et al., Metabolism, 39:1096-1107 (1990). […] Tritiated glucose was not infused during the hyperinsulinemic clamp, because preliminary studies indicate that this insulin infusion rate completely suppresses endogenous glucose appearance in both obese and lean animals.
During the hyperinsulinemic clamp, blood glucose concentrations were determined at 10-min intervals using the YSI glucose analyzer (Yellow Springs, Ohio). Glucose specific activity was determined on neutralized supernatants of deproteinized plasma as taught by Lang, Am. J. Physiol, 263 (Endocrinol. Metab. 26): E703-D711 (1992). Tissue samples (600-900 mg wet wt) were immersed in ice-cold 0.5 N PCA, homogenized, and centrifuged. The concentration of phosphorylated 2-DG in tissues was calculated as the difference between total ^14 C-radioactivity of the neutral extract and the ^14 C-radioactivity remaining after Somogyi treatment as described in detail by Lang CH, Dobrescu C, and Meszaros K., Metabolism 39:1096-1107 (1990).
Rates of whole body glucose appearance (Ra) and disappearance (Rd) are calculated using the steady-state equations of Steele, Ann. NY Acad. Sci., 82:420-430 (1959). The glucose metabolic clearance rate (MCR) is calculated by dividing the glucose Rd by the prevailing glucose concentration. Since the prevailing insulin levels during the hyperinsulinemic clamp completely suppress endogenous glucose production, the rate of whole body glucose disposal equals the exogenous glucose infusion rate. The increment in insulin-stimulated glucose uptake (IMGU) for each animals is calculated by subtracting the basal endogenous glucose Ra from the measured rate of glucose disposal determined during the last 40 min of the clamp. In vivo glucose uptake for each tissue examined is calculated based on the accumulation of phosphorylated 2-DG by a respective tissue, the integrated 2-DG:glucose ratio in the plasma during the 40-min labeling period, and the lumped constant as described by Lang, Endocrinology, 128:645-653 (1991).

[5] = test system: protein tyrosine phosphatase; assay: Protein tyrosine phosphatase assay of gastrocnemius fractions and insulin receptor preparations of treated rats; format: in vivo, Zucker rats
Method: Approximately 100 mg frozen tissue were homogenized in 5 ml buffer containing 10 mM NaHCO3, (pH 7.4), 250 mM sucrose, 0.1 mg/ml aprotinin, 0.05 mg/ml leupeptin, 1 mM phenylmethysulfonyl fluoride (PMSF), and 5 mM NaN3 (CHB buffer) and then sonicated for 1 min on ice with three 20-sec bursts. The sonicate was centrifuged at 1,200 g for 10 min at 4° C. Three ml of CHB medium was added to the pellet which was then rehomogenized for 1 min and respun. The suspensions of the two pellets were combined, rehomogenized, and respun at 10,000 g for 10 minutes at 4° C. The 10,000 g pellet was discarded and the supernatant was transferred to a cold Ti75 ultracentrifuge tube and spun at 270,000 g for 90 minutes. The supernatant of the high speed centrifugation (cytosol) was used for PTPase assays. The 270,000 g pellet was resuspended in 0.500 ml buffer containing 250 mM sucrose, 20 mM HEPES (pH 7.4), 0.6 M KC1, and 1% Triton X-100. A 27 gauge syringe needle was used to completely solubilize the pellet. The supernatant was spun at 12,000 rpm for 20 min and the resulting supernatant, termed particulate fraction was then dialyzed overnight at 4° C. against 20 mM HEPES (pH 7.2) and 0.1% β-mercaptoethanol. Samples were stored at -70° C. until used for PTPase assays.
Each tube contained 10 μl [^32 P]tyrosine-phosphorylated myelin basic protein (1×10^4 dpm; 2×10^3 dpm/pmol), 10 μl 5X PTP-ase buffer [250 mM HEPES (pH 7.0), 10 mM EDTA, 5 mM DTT], and 1-5 μg muscle fraction protein and water in a total volume of 40 μl. Consumption of substrate (phosphorylated myelin basic protein) was limited to 20%.
One unit of PTPase activity is defined as the amount of enzyme releasing 1 nmol phosphate/min from myelin basic protein.
(§1) PTPase was measured in skeletal muscle cytosolic fractions, particulate fractions, and in partially purified insulin receptors. To assay PTPase activity in partially purified insulin receptors the WGA eluates were dialyzed overnight against 0.1% β-mercaptoethanol and 20 mM HEPES, pH 7.2, to eliminate phosphatase inhibitors.

[6] = test system: protein tyrosine phosphatase; assay: In vitro inclusion of compound in WGA eluates, protein tyrosine phosphatase assay; format: biochemical, Zucker rats; details: 10 μM in vitro in WGA eluates from obese controls
Method: Assays were performed at 25° C. using a slight modification of a protocol described by Ahmad and Goldstein, Am. […] Each tube contained 10 μl [^32 P]tyrosine-phosphorylated myelin basic protein (1×10^4 dpm; 2×10^3 dpm/pmol), 10 μl 5X PTP-ase buffer [250 mM HEPES (pH 7.0), 10 mM EDTA, 5 mM DTT], and 1-5 μg muscle fraction protein and water in a total volume of 40 μl. Consumption of substrate (phosphorylated myelin basic protein) was limited to 20%. […] The assay differs from that of Ahmed and Goldstein in that the amount of phosphorylated substrate (myelin basic protein) was lower and its specific activity higher, similar to the skeletal muscle PTPase assay described by Tanowitz, et al., Brain Res., 712:299-306 (1996).
as §1

**Q.** Which results are given for `CCCn1c(=O)c2[nH]c(-c3ccc(C=CC(=O)O)cc3)nc2n(CCC)c1=O` [BWA1433, 1,3-dipropyl-8-(p-acrylic)phenylxanthine]?
**A.** Kd [1]: 140 nM; Kd [2]: 60 nM; Kd [3]: 30 nM; Change in IMGU ([4]; lean Zucker rats): No change; Decrease in whole body glucose disposal ([4]; lean animals, hyperinsulinemic clamp): 16%; Average plasma glucose concentration during final hour of clamp ([4]; lean rats): 5.4 ± 0.1 mM; Average plasma glucose concentration during final hour of clamp ([4]; obese rats): 5.5 ± 0.1 mM; Increase in IMGU compared to vehicle-treated obese animals ([4]; obese rats): more than 6 fold; Increase in rate of whole body glucose uptake compared to untreated obese rats ([4]; obese rats, hyperinsulinemic clamp): 88%; Whole body glucose uptake rate lower than in lean control animals ([4]; treated obese animals versus lean control): approximately 50%; Phosphatase activity in cytosolic fractions of gastrocnemius ([5]; between groups (lean, obese, ± treatment)): No differences; PTPase activity in particulate fraction of gastrocnemius ([5]; obese Zucker rats): reduction; Reduction of phosphatase activity in partially-purified insulin receptor preparations compared to untreated controls ([5]; obese rats): 27%; Effect on protein tyrosine phosphatase activity [6]: no effect
